Test results: BigSolDB 2.1

Conditions: 298.15 K

CCC(C)n1ncn(-c2ccc(N3CCN(c4ccc(OC[C@H]5CO[C@](Cn6cncn6)(c6ccc(Cl)cc6Cl)O5)cc4)CC3)cc2)c1=O (mixture of isomers)
Conditions | solubility (mole fraction)
in DMAc | 0.0118
in DMF | 0.0107
in DMSO | 0.00175
in NMP | 0.022
in THF | 0.00212
in acetone | 0.000637
in acetonitrile | 7.95e-05
in chloroform | 0.0504
in dichloromethane | 0.0327
in ethanol | 1.91e-05
in isopropanol | 2.14e-05
in methanol | 3.79e-05
in n-butanol | 2.3e-05
in n-propanol | 2.05e-05
in transcutol | 0.00073
in water | 2.43e-07
